According to ChEMBL document CHEMBL1157182, “Structural insights into the Plasmodium falciparum histone deacetylase 1 (PfHDAC-1): A novel target for the development of antimalarial therapy” (Bioorg Med Chem, 2008):

Experiments:
[1] = system: Plasmodium falciparum; assay: Antimalarial activity against chloroquine-sensitive Plasmodium falciparum D6 after 48 hrs by LDH reporter assay; format: functional, organism-based; details: D6, 48 h
[2] = system: Plasmodium falciparum; assay: Antimalarial activity against chloroquine-resistant Plasmodium falciparum W2 after 48 hrs by LDH reporter assay; format: functional, organism-based; details: W2, 48 h

Row | Structure (SMILES) | IC50 ([1]; read-out: IC50) | IC50 ([1]; read-out: pIC50 (converted)) | IC50 ([2]; read-out: IC50) | IC50 ([2]; read-out: pIC50 (converted))
1 | O=C(CCCCCCC(=O)NO)NO [SUBEROHYDROXAMIC ACID] | 2230 nM | 2240 nM | 1530 nM | 1510 nM
2 | O=C(CCCCCCCC(=O)NO)NO [AZELAIC BIS HYDROXAMIC ACID] | 5500 nM | 5500 nM | 3900 nM | 3890 nM
3 | O=C(NO)c1ccccc1O [SALICYLHYDROXAMIC ACID] | 35700 nM | 35500 nM | 51300 nM | 51300 nM
4 | C[C@@H]1CC[C@H]2[C@@H](C)C(=O)O[C@@H]3O[C@@]4(C)CC[C@@H]1[C@]32OO4 [ARTEMISININ] | 9 nM |  | 1 nM | 
5 | CC(/C=C/C(=O)NO)=C\[C@@H](C)C(=O)c1ccc(N(C)C)cc1 [TRICHOSTATIN] | 15.6 nM | 15.5 nM | 10 nM | 9.77 nM
